Measured values: US4620014A, “2-furylbutyrolactones and methods for using same” (priority 1983, dated 1986)
Where two headings read alike, the source gives them in different places.

Key:
[1] = tested on: spleen lymphocytes of C57BL/6 mice; assay: In vivo treatment, lymphocyte stimulation assay, C57BL/6 mice
Procedure: The purpose of this assay is to challenge lymphocytes in microcultures with one or more polyclonal mitogens at concentrations that will induce mitogenesis within 72 hours of stimulation.
In the mouse model, spleens are removed from different strains of mice and the spleen cells are teased free and suspended in RPMI-1640 tissue culture medium at a concentration of usually 1×10^7 ml. These cells are dispensed at a concentration of 5.0×10^5 cells per microculture well in a 96 well flat bottom 96 well tissue culture plate. All testing of the compounds of this invention or mitogens are done in replicates of 10. The cells are then treated with PHA, Con-A, specific antigens, or buffer only. If in vitro testing is done, varying concentrations of the compounds of this invention or buffer only are added to the cells as well. After treatment with the mitogens and/or compounds of this invention, the cells are incubated for 72 hours. The response of these cells to mitogens and/or the compounds of this invention is assessed using ^14 C-thymidine labeling on the fourth day at a concentration of 0.01 μCi/well. The labeled cells are harvested using a lymphocyte harvestor and placed onto fibrous paper discs. A scintillation cocktail is added to vials contaning the discs and the results are obtained using a LKB-liquid scintillation counter (Model 1216/Rackbeta II). The data is expressed as a ratio of the cpm of the mitogen stimulated group to the control (non-mitogen) treated group=lymphocyte stimulation index (LSI).
The lymphocyte stimulation assay may be performed directly on spleen cells obtained from various strains of mice not treated with the compounds of this invention or on lymphocytes obtained from […]. […] Alternatively, the mice may be treated in vivo with the compounds of this invention by intraperitoneal multi-dose schedules, followed by sacrifice and harvesting spleen lymphocytes. These cells are then tested for their response to polyclonal mitogens or specific antigens used to immunize the mice. In this sytem however, no additional compound is added to the in vitro lymphocyte stimulation assay system.
Two strains of mice, C57BL/6 and BDF1 are treated for seven days with i.p. administration of either 25, 50, 100, 200, or 400 mg/kg of Cpd. 1 or just buffer. This is followed on the eighth day by a lymphocyte stimulation assay.
A comparison is made of the lymphocyte response to C57BL/6 mice treated 4 days with i.p. administration of either 50, 100, 200, 400 or 800 mg/kg of Cpd. 1, 50, 100, 200, 400 or 800 mg/kg of ascorbic acid (AA), or just buffer. This is followed on the fifth day by a lymphocyte stimulation assay.
Two strains of mice, C57BL/6 and BALB/c, are treated 4 days with i.p. administration of either 50, 100, 200, or 400 mg/kg of Cpd. 1, or just buffer. This is followed on the fifth day by a lymphocyte stimulation assay.
C57BL/6 mice were treated with four daily i.p. doses of either 50, 100, 200, or 400 mg/kg of Cpd. 1 or just buffer. On the fifth day a lymphocyte stimulation assay was performed.
Mice of the C57BL/6 strain were tested with i.p. administration of either 100, 200, 400 or 600 mg/kg of Cpd. 1 or just buffer. This was followed by removal of spleens and treatment of lymphocytes therein with mitogens PHA and Con-A.
The compound of Example 2, Cpd. 2, was tested in vivo by using C57BL/6 mice and treating them with […] or just buffer for four consecutive days by the i.p. route. On the fifth day a lymphocyte stimulation assay was performed.

[2] = tested on: antibody response to bovine serum albumin (BSA); details: for stimulation of antibody response to BSA: day 13
Description: The effect of the compounds of this invention on the immune response to specific antigens involves immunization of mice with specific anitgens such as bovine serum albumin (BSA) or keyhole limpet hemocyanin (KLH). Following immunization, it is possible to assess the cell-mediated or humoral (antibody) immune response to these antigens by various methods:
(2) Antibody response to soluble antigens such as BSA or KLH can be quantitated using a micro-ELISA solid phase heterogeneous immunoassay. The assay can be designed to quantitate class specific immunoglobulins (i.e., IgG or IgM).
The cut-off for the titer was the highest dilution of mouse serum yielding an O.D.≤0.1 when read on the MR-600 Dynatech micro-ELISA reader.
Mice of the C57BL/6 strain are given i.p. injections of either 50, 100, 200 or 400 mg/kg of Cpd. 1 or buffer for twelve days (days 1-12). An antigen, bovine serum albumin (BSA), is administered intraperitoneally with Freund's Complete Adjuvant (FCA) on days 1, 7 and 14. Blood samples are taken for assay of the antibody response on days 0, 5, 13, and 19.

FLC-745 cells = assay: MLTC assay of CTL activity, FLC-745 target cells; type: cell-based
Description: A mixed lymphocyte tumor culture (MLTC) immunoassay, used to determine the cytotoxic lymphocyte (CTL) activity employs lymphocytes from either immunized (sensitized) mice or DBA/2 tumor dormant state animals in various stages of the tumor dormant state (TDS). The assay employs L5178Y target cells labeled with ^51 Chromium and effector cells (sensitized lymphocytes) from the above-mentioned sources. Effector-target cell ratios will vary with different experimental conditions and may or may not include irradiated stimulator L5178Y cells. Results are expressed as % lysis of target cells based on ratio of cpm of test group over cpm of total release (maximum) both of which are corrected for spontaneous release of ^51 Cr. The assay can be performed as an 8 or 18 hour release assay.
An MLTC assay is performed to assess the CTL activity and tumor target cell specificity of Cpd. 1. Tumor dormant spleen cells and normal spleen cells of DBA/2 mice are used as effector cells. Irradiated L5178Y cells are used as stimulator cells. ^51 Cr-labeled L5178Y cells and FLC-745 cells are used as target cells. The effector/target ratios studied are 100:1, 30:1 and 10:1.

How did the “T-lymphocyte proliferation, PHA” value ([1]; 200 mg/kg i.p., 7 days) turn out when `Cc1ccc(C2(O)C(=O)OC3C(O)COC32O)o1.Cc1ccc(C2(O)C(=O)OC3C(O)COC32O)o1.O=C1CCC(=O)O1` (stereo not shown) [Cpd. 1] was run?
Its value is “stimulation of T-lymphocyte proliferation”.

What about the “response to PHA” value ([1]; 400 mg/kg compared to 200 mg/kg, four daily doses) of the same molecule?
The value was “decrease in the response to PHA”.

And the PHA response ([1]; 400 mg/kg i.p., 7 days)?
The PHA response was “strong suppression of the PHA response”.

And the Con-A response ([1]; 400 mg/kg i.p., 7 days, compared to 200 mg/kg)?
The Con-A response was “suppression of the Con-A response”.

What about the “DNA synthesis of spleen cell lymphocytes” value ([1]; 400 mg/kg, compared to 200 mg/kg, 4 days) of the same molecule?
Its value is “suppress DNA synthesis”.

What about the evidence of toxicity ([1]; 600 mg/kg i.p., five day administration) of the same molecule?
Its evidence of toxicity is “no evidence of toxicity”.

What about the stimulation of lymphocytes ([1]; 600 mg/kg, compared to 100 to 400 mg/kg, five days) of the same molecule?
The stimulation of lymphocytes was “less stimulation”.

What about the “lymphocyte DNA synthesis, PHA and Con-A” value ([1]; 50, 100 and 200 mg/kg i.p., 4 days) of the same molecule?
Its value is “tend to stimulate lymphocyte DNA synthesis”.

And the Con-A response ([1]; 50, 100 and 200 mg/kg i.p., 7 days)?
Its Con-A response is “increased”.

What about the “response to polyclonal mitogens” value ([1]; 50-400 mg/kg i.p., four daily doses) of the same molecule?
Its value is “Stimulation of the response to polyclonal mitogens”.

What about the “effect, Con-A” value ([1]; 50 to 200 mg/kg i.p., 4 days) of the same molecule?
Its value is “significant stimulatory effect”.

And the “lymphocyte DNA synthesis, PHA” value ([1]; 100 and 200 mg/kg i.p., 4 days)?
The value was “tend to stimulate lymphocyte DNA synthesis”.

And the “Con-A and PHA treated lymphocytes” value ([1]; 100 to 400 mg/kg, five days)?
The value was “significant stimulation”.

What about the “DNA synthesis of spleen lymphocytes, PHA” value ([1]; 400 to 800 mg/kg i.p., 4 days) of the same molecule?
The value was “suppress DNA synthesis of spleen lymphocytes”.

And the “effect, Con-A” value ([1]; 400 to 800 mg/kg i.p., 4 days)?
The value was “significant anti-proliferative effect”.

What about the “Micro-ELISA Titer” value ([2]; 50 mg/kg i.p., day 5) of the same molecule?
Its value is “N/R”.

What about the “Micro-ELISA Titer” value ([2]; 50 mg/kg i.p., prebleed) of the same molecule?
The value was “N/R”.

And the “antibody titer over the control” value ([2]; 50 mg/kg, day 19)?
The value was “slight increase”.

What about the “Micro-ELISA Titer” value ([2]; 100 mg/kg i.p., day 5) of the same molecule?
Its value is “N/R”.

And the “Micro-ELISA Titer” value ([2]; 100 mg/kg i.p., prebleed)?
Its value is “N/R”.

What about the “Micro-ELISA Titer” value ([2]; 200 mg/kg i.p., day 5) of the same molecule?
Its value is “N/R”.

What about the “Micro-ELISA Titer” value ([2]; 200 mg/kg i.p., prebleed) of the same molecule?
Its value is “N/R”.

And the “Micro-ELISA Titer” value ([2]; 400 mg/kg i.p., day 5)?
Its value is “N/R”.

And the “Micro-ELISA Titer” value ([2]; 400 mg/kg i.p., prebleed)?
The value was “N/R”.

And the “stimulation of antibody response to BSA” value ([2]; 50 and 100 mg/kg)?
The value was “slight amount of stimulation”.

What about the “increase of antibody response to BSA over controls” value ([2]; 100 and 200 mg/kg, day 19) of the same molecule?
The value was 16 fold.

What about the “stimulation of antibody response to BSA” value ([2]; 200 and 400 mg/kg) of the same molecule?
The value was “significant (four-fold) stimulation”.

And the “% Lysis” value (FLC-745 cells; E + D (TDS effector, no stimulator), E/T 10:1)?
The value was 0.7%.

And the “% Lysis” value (FLC-745 cells; E + D (TDS effector, no stimulator), E/T 30:1)?
The value was 4.6%.

And the “% Lysis” value (FLC-745 cells; E + D (TDS effector, no stimulator), E/T 100:1)?
Its value is 6.6%.

And the “% Lysis” value (FLC-745 cells; E + S + D (TDS effector, stimulator), E/T 10:1)?
The value was 0.5%.

What about the “% Lysis” value (FLC-745 cells; E + S + D (TDS effector, stimulator), E/T 30:1) of the same molecule?
Its value is 3.6%.

What about the “% Lysis” value (FLC-745 cells; E + S + D (TDS effector, stimulator), E/T 100:1) of the same molecule?
Its value is 13.4%.

What about the “enhancement of CTL activity” value (FLC-745 cells; FLC-745 target system (Example 28)) of the same molecule?
Its value is “not observed”.

What about the “% Lysis” value (FLC-745 cells; N + D (normal effector, no stimulator), E/T 10:1) of the same molecule?
The value was -3.5%.

What about the “% Lysis” value (FLC-745 cells; N + D (normal effector, no stimulator), E/T 30:1) of the same molecule?
Its value is 0.9%.

What about the “% Lysis” value (FLC-745 cells; N + D (normal effector, no stimulator), E/T 100:1) of the same molecule?
Its value is 13.9%.

And the “% Lysis” value (FLC-745 cells; N + S + D (normal effector, stimulator), E/T 10:1)?
Its value is -1.1%.

And the “% Lysis” value (FLC-745 cells; N + S + D (normal effector, stimulator), E/T 30:1)?
Its value is -0.8%.

And the “% Lysis” value (FLC-745 cells; N + S + D (normal effector, stimulator), E/T 100:1)?
Its value is 5.8%.
